The values below come from US12129265B2, “Therapeutic agents and uses thereof” (Ankh Life Sciences Limited, priority 2020, dated 2024).

Molecules are shown by their SMILES. pIC50: −log10 of the molar value. Read-outs that look alike come from different tables or passages of the source.

Assay in all cases: CellTiter-Glo in vitro cell proliferation assay, Example 8
Assay type in all cases: cell-based, Human
In general terms: Cellular ATP, detected with luciferase, serves as a proxy for viable cell number.

The subject of one test is RPMI-8226 cells. The settings on record: RPMI-8226, HMM. As to the method:
(§1) Each proliferation assay was carried out as follows. The test cells were plated in growth media using a 384-well microtiter plate at 50 μL volume. The cells were incubated for 24 hours at 37° C. in a humidified incubator. After 24 hours of incubation, the test compounds were added to the test wells in DSMO solvent, at concentrations ranging from 0.0075-100 μM. Control wells received equal volumes of DSMO, without compound. Following drugging, the cells were incubated for 72 hours at 37° C. in a humidified incubator. After this exposure, 100 μL of a 1:1 mixture of sterile water and CellTiter-Glo® reagent (Promega) was added to each well. The plates were then incubated for 60 minutes at room temperature, followed by recording the luminescence value of each well using a luminometer as a measure of cell proliferation.
In this example, different cell lines were subjected to in vitro cell proliferation assays as described in Example 8. In particular, the cell lines are identified in the following Table 17, and the tissue types were: Pancreatic; Endometrial; Triple-Negative Breast Cancer (TNBC); Non-Small-Cell Lung Carcinoma (NSCLC); Ovarian; Renal Cell Carcinoma (RCC); Cervical-Squamous Cell; […] (H&N-Squamous Cell); Germinal Center B Cell-Like Novo Diffuse Large B-Cell Lymphoma (GCB-DLBCL); Activated B-Cell—Diffuse Large B Cell Lymphoma (ABC-DLBCL); Human Myeloma; Human Myeloma Cell Line Lymphocyte-Like; Human Myeloma Cell Line Lymphocyte-Like Myeloma Pleural Effusion Infiltration; Human Multiple Myeloma; Plasma Cell Leukemia/Multiple Myeloma Epstein-Barr Nuclear Antigen-Negative (EBNA-Negative) and to Express mRNA for Proto-Oncogene B-Cell Lymphoma 2 (BCL2); Multiple Myeloma from Peripheral Blood Type IgD Lmabda.

The test system of another test is DOHH-2 cells. Particulars: DoHH-2, GCB-DLBCL, read-out: Mean IC50. As to the method:
(§2) In this Example, in vitro cell proliferation assays were performed using: (1) Human Myeloma tumor cell lines; (2) Human Lymphoma tumor cell lines; (3) Solid Human tumor cell lines; and (4) Parental, Lenalidomide resistant and Bortezomib resistant Jeko-1 Mantle cell Lymphoma tumor cell lines. The compounds tested were three diharmaline compounds, namely the 518B562 (or simply 562), 560, and 561 compounds. In addition, a monoharmaline product designated as 518F014 was also tested. This monoharmaline product had the following structure:
as §1

A further test concerns L363 cells. The settings on record: L363, PCL/MM, read-out: Mean IC50. On the procedure:
as §2, §1

The subject of the next test is KMS-34 cells. The settings on record: KMS-34, HMCL-B, read-out: Mean IC50. As to the method: as §2, §1
Another test relates to MDA-MB-231 cells. The settings on record: MDA-MB-231, TNBC, read-out: Mean IC50. On the procedure: as §2, §1
The next test has as its system ASPC-1 cells. The settings on record: ASPC-1, Pancreatic, read-out: Mean IC50. On the procedure:
as §2, §1

A further test concerns A498 cells. Particulars: A498, RCC, read-out: Mean IC50. As to the method: as §2, §1
The next test has as its system SiHA cells. Particulars: Cervical - SC, read-out: Mean IC50. As to the method: as §2, §1
In another test the test system is MDA-MB-468 cells. The settings on record: MDA-MB-468, TNBC, read-out: Mean IC50. On the procedure:
as §2, §1

A further test has as its system MIA PaCa-2 cells. The settings on record: MIA PaCa-2, Pancreatic, read-out: Mean IC50. On the procedure:
as §2, §1

The test system of another test is BxPC-3 cells. Particulars: BxPC-3, Pancreatic, read-out: Mean IC50. As to the method: as §2, §1
For another test, the system named is A2780 cells. The settings on record: A2780, Ovarian, read-out: Mean IC50. As to the method: as §2, §1
The subject of a further test is KMM-1 cells. Particulars: KMM-1, HMCL-A, read-out: Mean IC50. On the procedure: as §2, §1
In the next test the test system is A2780CP cells. Particulars: Ovarian, read-out: Mean IC50. As to the method:
as §2, §1

The test system of another test is AN3CA cells. The settings on record: Endometrial, read-out: Mean IC50. As to the method:
as §2, §1

Another test concerns JIM1 cells. The settings on record: JIM1, HMCL, read-out: Mean IC50. On the procedure: as §2, §1
The subject of the next test is H1650 (EGFR mut) cells. Particulars: read-out: Mean IC50. On the procedure:
as §2, §1

For another test, the system named is MOLP-8 cells. The settings on record: MOLP-8, MM IgD, read-out: Mean IC50. As to the method:
as §2, §1

A further test concerns HCC70 cells. Particulars: HCC70, TNBC, read-out: Mean IC50. As to the method: as §2, §1
For another test, the system named is H1975 (EGFR mut) cells. Particulars: read-out: Mean IC50. As to the method:
as §2, §1

The test system of another test is HEC-1a cells. The settings on record: Endometrial, read-out: Mean IC50. On the procedure:
as §2, §1

For the next test, the system named is OCI-LY3 cells. Particulars: OCI-LY3, ABC-DLBCL, read-out: Mean IC50. On the procedure: as §2, §1
The test system of a further test is FaDu cells. The settings on record: H&N - SC, read-out: Mean IC50. As to the method:
as §2, §1

The term pIC50 denotes the IC50 on a negative log10 scale, so that one unit is a factor of ten. As to `COc1ccc2c3c([nH]c2c1)C(CC(CC1=NCCc2c1[nH]c1cc(OC)ccc21)c1cc(Br)c(O)c(OC)c1)=NCC3` [compound 12], the pIC50 was 4.99 with RPMI-8226 cells; 5.43 in the test with DOHH-2 cells; 4.96 in the test with L363 cells; 5.14 in the test on KMS-34 cells; 4.95 in the test with MDA-MB-231 cells; 4.50 with ASPC-1 cells. The pIC50 in the test with A498 cells is 4.39; with SiHA cells it was 4.30; in the test on MDA-MB-468 cells, 4.93; in the test with MIA PaCa-2 cells it was 4.93; in the test with BxPC-3 cells it was 4.95; with A2780 cells, 4.67. For the same compound, the pIC50 was 4.97 with KMM-1 cells; 4.69 in the test on A2780CP cells; 5.27 in the test on AN3CA cells; 5.22 in the test on JIM1 cells; 4.67 with H1650 (EGFR mut) cells (NSCLC); 5.41 with MOLP-8 cells. In addition, the negative logarithm of the IC50 (pIC50) is 4.66 in the test with HCC70 cells; 4.89 in the test with H1975 (EGFR mut) cells (NSCLC); 4.60 in the test on HEC-1a cells; 4.95 with OCI-LY3 cells; 4.74 in the test with FaDu cells.

On to `C=C(C)C1CC=C(C(CC2=NCCc3c2[nH]c2cc(OC)ccc32)CC2=NCCc3c2[nH]c2cc(OC)ccc32)CC1` (stereo not drawn) [compound 28], for which the pIC50 with RPMI-8226 cells was 5.46; in the test on DOHH-2 cells it was 5.60; in the test with L363 cells, 5.32; in the test on KMS-34 cells, 5.35; with MDA-MB-231 cells it was 4.99; with ASPC-1 cells it was 5.14. Further, the pIC50 is 4.79 with A498 cells; 4.88 in the test with SiHA cells; 5.07 in the test with MDA-MB-468 cells; 5.35 in the test on MIA PaCa-2 cells; 5.18 with BxPC-3 cells; 5.19 with KMM-1 cells. Further, the negative-log IC50 (pIC50) with A2780CP cells was 5.15; in the test on AN3CA cells it was 5.35; with JIM1 cells it was 5.09; in the test with H1650 (EGFR mut) cells (NSCLC), 4.95; with MOLP-8 cells, 5.43; in the test on HCC70 cells, 4.92. Moreover, the negative-log IC50 (pIC50) is 4.98 in the test with HEC-1a cells, 5.21 with OCI-LY3 cells and 5.25 in the test with FaDu cells.

For `COc1ccc2c3c([nH]c2c1)C(CC(CC1=NCCc2c1[nH]c1cc(OC)ccc21)c1c(F)c(F)c(F)c(F)c1F)=NCC3` [compound 24], the pIC50 was 5.30 in the test with RPMI-8226 cells (Homo sapiens); 5.25 with DOHH-2 cells (Homo sapiens); 4.88 with L363 cells (Homo sapiens, L-363); 5.11 in the test with KMS-34 cells (Homo sapiens); 4.68 in the test with MDA-MB-231 cells (Homo sapiens); 4.49 with ASPC-1 cells (Homo sapiens, ASPC1). Further, the pIC50 is 4.08 with A498 cells (Homo sapiens); 4.23 with SiHA cells (Homo sapiens); 4.78 with MDA-MB-468 cells (Homo sapiens); 4.89 in the test with MIA PaCa-2 cells (Homo sapiens); 4.97 with BxPC-3 cells (Homo sapiens); 4.97 in the test on A2780 cells (Homo sapiens). For the same compound, the pIC50 in the test on KMM-1 cells (Homo sapiens) was 4.95; in the test with A2780CP cells (Homo sapiens, A2780C/P), 4.75; with AN3CA cells (Homo sapiens, AN3-CA), 4.95; in the test with JIM1 cells (Homo sapiens), 4.25; with H1650 (EGFR mut) cells (Homo sapiens, NCI-H1650, NSCLC), 4.90; with MOLP-8 cells (Homo sapiens), 4.98. In addition, the negative logarithm of the IC50 (pIC50) in the test with HCC70 cells (Homo sapiens) is 4.59; with H1975 (EGFR mut) cells (Homo sapiens, NCI-H1975, NSCLC), 4.93; in the test on HEC-1a cells (Homo sapiens), 4.32; in the test with OCI-LY3 cells (Homo sapiens) it was 4.94; with FaDu cells (Homo sapiens), 4.93.

Regarding `COc1ccc2c3c([nH]c2c1)C(CC(CC1=NCCc2c1[nH]c1cc(OC)ccc21)c1ccc(Cl)cc1)=NCC3` [compound 27], the pIC50 with RPMI-8226 cells is 5.49; in the test on DOHH-2 cells, 5.60; with L363 cells it was 5.11; in the test with KMS-34 cells it was 5.35; in the test with MDA-MB-231 cells it was 5.13; in the test on ASPC-1 cells, 5.13. The pIC50 in the test with A498 cells was 4.93; in the test with SiHA cells, 4.94; with MDA-MB-468 cells, 4.97; in the test on MIA PaCa-2 cells it was 5.23; with BxPC-3 cells, 5.34; in the test with A2780 cells, 5.09. In addition, the pIC50 was 5.14 in the test with KMM-1 cells; 4.95 with A2780CP cells; 5.36 in the test on AN3CA cells; 4.94 in the test on JIM1 cells; 4.95 in the test on H1650 (EGFR mut) cells (NSCLC); 5.40 in the test with MOLP-8 cells. The pIC50 with HCC70 cells is 4.94; in the test with H1975 (EGFR mut) cells (NSCLC) it was 4.94; in the test on HEC-1a cells, 4.93; in the test with OCI-LY3 cells, 5.03; with FaDu cells it was 4.95.

Turning to `COc1ccc2c3c([nH]c2c1)C(CC(CC1=NCCc2c1[nH]c1cc(OC)ccc21)c1ccc(C(C)C)cc1)=NCC3` [compound 29], the pIC50 is 5.35 with RPMI-8226 cells; 5.68 with DOHH-2 cells; 4.94 with L363 cells; 5.36 in the test on KMS-34 cells; 4.86 in the test with MDA-MB-231 cells; 4.97 in the test with ASPC-1 cells. In addition, the pIC50 in the test on A498 cells was 4.37; in the test with SiHA cells it was 4.33; in the test on MIA PaCa-2 cells, 4.95; in the test with BxPC-3 cells it was 4.94; with A2780 cells it was 4.92; with KMM-1 cells it was 5.11. Besides, the pIC50 with A2780CP cells is 4.94; with AN3CA cells, 5.09; in the test with JIM1 cells, 4.78; with H1650 (EGFR mut) cells (NSCLC), 4.86; in the test with MOLP-8 cells, 5.23; in the test on HCC70 cells, 4.40. Further, the pIC50 in the test on H1975 (EGFR mut) cells (NSCLC) is 4.87; in the test on OCI-LY3 cells, 5.02; with FaDu cells it was 4.94.
